# Measurements published in PubChem BioAssay (NCI).
#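 Cells were grown in 96-well plates and exposed to each compound for 48 hours at five concentrations; endpoints were interpolated linearly between bracketing concentrations, or set to the highest concentration if not reached. GI50 = concentration required for 50% inhibition of growth. Definition used: TGI = concentration required for complete inhibition of growth.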
# Legend:
# Experiment in all cases: inhibition of tumour cell growth, NCI panel, 48 h
# 786-0 renal = system: 786-0 renal
# A498 renal = system: A498 renal
# A549 NSCLC = system: A549 NSCLC
# ACHN renal = system: ACHN renal
# BT-549 breast = system: BT-549 breast
# CAKI-1 renal = system: CAKI-1 renal
# CCRF-CEM leukemia = system: CCRF-CEM leukemia
# COLO 205 colon = system: COLO 205 colon
# DU-145 prostate = system: DU-145 prostate
# EKVX NSCLC = system: EKVX NSCLC
# HCC-2998 colon = system: HCC-2998 colon
# HCT-116 colon = system: HCT-116 colon
# HCT-15 colon = system: HCT-15 colon
# HL-60(TB) leukemia = system: HL-60(TB) leukemia
# HOP-62 NSCLC = system: HOP-62 NSCLC
# HOP-92 NSCLC = system: HOP-92 NSCLC
# HS 578T breast = system: HS 578T breast
# HT29 colon = system: HT29 colon
# IGROV1 ovarian = system: IGROV1 ovarian
# K-562 leukemia = system: K-562 leukemia
# KM12 colon = system: KM12 colon
# LOX IMVI melanoma = system: LOX IMVI melanoma
# M14 melanoma = system: M14 melanoma
# MALME-3M melanoma = system: MALME-3M melanoma
# MCF7 breast = system: MCF7 breast
# MDA-MB-231 breast = system: MDA-MB-231 breast
# MDA-MB-435 = system: MDA-MB-435
# MOLT-4 leukemia = system: MOLT-4 leukemia
# NCI-H226 lung = system: NCI-H226 lung
# NCI-H23 lung = system: NCI-H23 lung
# NCI-H460 lung = system: NCI-H460 lung
# NCI-H522 lung = system: NCI-H522 lung
# NCI/ADR-RES ovarian = system: NCI/ADR-RES ovarian
# OVCAR-3 ovarian = system: OVCAR-3 ovarian
# OVCAR-4 ovarian = system: OVCAR-4 ovarian
# OVCAR-5 ovarian = system: OVCAR-5 ovarian
# OVCAR-8 ovarian = system: OVCAR-8 ovarian
# PC-3 prostate = system: PC-3 prostate
# RPMI-8226 leukemia = system: RPMI-8226 leukemia
# RXF 393 renal = system: RXF 393 renal
# SF-268 CNS = system: SF-268 CNS
# SF-295 CNS = system: SF-295 CNS
# SF-539 CNS = system: SF-539 CNS
# SK-MEL-2 melanoma = system: SK-MEL-2 melanoma
# SK-MEL-28 melanoma = system: SK-MEL-28 melanoma
# SK-MEL-5 melanoma = system: SK-MEL-5 melanoma
# SK-OV-3 ovarian = system: SK-OV-3 ovarian
# SN12C renal = system: SN12C renal
# SNB-19 CNS = system: SNB-19 CNS
# SNB-75 CNS = system: SNB-75 CNS
# SR leukemia = system: SR leukemia
# SW-620 colon = system: SW-620 colon
# TK-10 renal = system: TK-10 renal
# U251 CNS = system: U251 CNS
# UACC-257 melanoma = system: UACC-257 melanoma
# UACC-62 melanoma = system: UACC-62 melanoma
# UO-31 renal = system: UO-31 renal
structure (smiles),measurement,setting,value
CNCCC/C=C1\c2cc3c(cc2-c2c1c1cc(OC)c(OC)cc1c(=O)n2C)OCO3,GI50,786-0 renal,259 nM
same,TGI,786-0 renal,2310 nM
same,GI50,A498 renal,< 32.7 nM
same,TGI,A498 renal,341 nM
same,GI50,A549 NSCLC,1310 nM
same,TGI,A549 NSCLC,> 24500 nM
same,GI50,ACHN renal,245 nM
same,TGI,ACHN renal,1040 nM
same,GI50,BT-549 breast,455 nM
same,TGI,BT-549 breast,4330 nM
same,GI50,CAKI-1 renal,269 nM
same,TGI,CAKI-1 renal,1480 nM
same,GI50,CCRF-CEM leukemia,843 nM
same,TGI,CCRF-CEM leukemia,10900 nM
same,GI50,COLO 205 colon,1130 nM
same,GI50,DU-145 prostate,1070 nM
same,TGI,DU-145 prostate,5500 nM
same,GI50,EKVX NSCLC,1310 nM
same,TGI,EKVX NSCLC,5700 nM
same,GI50,HCC-2998 colon,226 nM
same,TGI,HCC-2998 colon,2470 nM
same,GI50,HCT-116 colon,399 nM
same,TGI,HCT-116 colon,1900 nM
same,GI50,HCT-15 colon,1150 nM
same,TGI,HCT-15 colon,6770 nM
same,GI50,HL-60(TB) leukemia,2220 nM
same,TGI,HL-60(TB) leukemia,12000 nM
same,GI50,HOP-62 NSCLC,590 nM
same,TGI,HOP-62 NSCLC,3970 nM
same,GI50,HOP-92 NSCLC,347 nM
same,TGI,HOP-92 NSCLC,5430 nM
same,GI50,HS 578T breast,3170 nM
same,TGI,HS 578T breast,30300 nM
same,GI50,HT29 colon,658 nM
same,TGI,HT29 colon,12000 nM
same,GI50,IGROV1 ovarian,487 nM
same,GI50,K-562 leukemia,493 nM
same,TGI,K-562 leukemia,5870 nM
same,GI50,KM12 colon,1920 nM
same,TGI,KM12 colon,18100 nM
same,GI50,LOX IMVI melanoma,322 nM
same,TGI,LOX IMVI melanoma,1740 nM
same,GI50,M14 melanoma,1140 nM
same,TGI,M14 melanoma,9400 nM
same,GI50,MALME-3M melanoma,807 nM
same,TGI,MALME-3M melanoma,5980 nM
same,GI50,MCF7 breast,244 nM
same,TGI,MCF7 breast,813 nM
same,GI50,MDA-MB-231 breast,1030 nM
same,TGI,MDA-MB-231 breast,5310 nM
same,GI50,MDA-MB-435,1960 nM
same,TGI,MDA-MB-435,13400 nM
same,GI50,MOLT-4 leukemia,137 nM
same,TGI,MOLT-4 leukemia,405 nM
same,GI50,NCI-H226 lung,509 nM
same,TGI,NCI-H226 lung,2090 nM
same,GI50,NCI-H23 lung,1070 nM
same,TGI,NCI-H23 lung,5310 nM
same,GI50,NCI-H460 lung,331 nM
same,GI50,NCI-H522 lung,611 nM
same,GI50,NCI/ADR-RES ovarian,1530 nM
same,TGI,NCI/ADR-RES ovarian,10300 nM
same,GI50,OVCAR-3 ovarian,985 nM
same,TGI,OVCAR-3 ovarian,4120 nM
same,GI50,OVCAR-4 ovarian,7990 nM
same,TGI,OVCAR-4 ovarian,44300 nM
same,GI50,OVCAR-5 ovarian,1380 nM
same,TGI,OVCAR-5 ovarian,8890 nM
same,GI50,OVCAR-8 ovarian,2460 nM
same,TGI,OVCAR-8 ovarian,19800 nM
same,GI50,PC-3 prostate,1120 nM
same,TGI,PC-3 prostate,10600 nM
same,GI50,RPMI-8226 leukemia,1240 nM
same,TGI,RPMI-8226 leukemia,7940 nM
same,GI50,RXF 393 renal,105 nM
same,TGI,RXF 393 renal,958 nM
same,GI50,SF-268 CNS,521 nM
same,TGI,SF-268 CNS,10000 nM
same,GI50,SF-295 CNS,322 nM
same,TGI,SF-295 CNS,2270 nM
same,GI50,SF-539 CNS,144 nM
same,TGI,SF-539 CNS,558 nM
same,GI50,SK-MEL-2 melanoma,6920 nM
same,TGI,SK-MEL-2 melanoma,> 42400 nM
same,GI50,SK-MEL-28 melanoma,1400 nM
same,TGI,SK-MEL-28 melanoma,7990 nM
same,GI50,SK-MEL-5 melanoma,435 nM
same,TGI,SK-MEL-5 melanoma,1690 nM
same,GI50,SK-OV-3 ovarian,1870 nM
same,GI50,SN12C renal,858 nM
same,TGI,SN12C renal,5310 nM
same,GI50,SNB-19 CNS,883 nM
same,TGI,SNB-19 CNS,24700 nM
same,GI50,SNB-75 CNS,1260 nM
same,TGI,SNB-75 CNS,11900 nM
same,GI50,SR leukemia,211 nM
same,TGI,SR leukemia,581 nM
same,GI50,SW-620 colon,793 nM
same,TGI,SW-620 colon,19500 nM
same,GI50,TK-10 renal,1830 nM
same,TGI,TK-10 renal,9830 nM
same,GI50,U251 CNS,305 nM
same,TGI,U251 CNS,4030 nM
same,GI50,UACC-257 melanoma,3090 nM
same,TGI,UACC-257 melanoma,> 100000 nM
same,GI50,UACC-62 melanoma,248 nM
same,TGI,UACC-62 melanoma,1380 nM
same,GI50,UO-31 renal,750 nM
